Experimental data from ChEMBL document CHEMBL1201862, “PubChem BioAssay data set” (2004).
Active and inactive are the calls of the source. Cut-off read from the data, not from the text of the source: actives have a measured IC50 and inactives only a lower limit.

These molecules were tested against Envelope glycoprotein gp160 (Human immunodeficiency virus 1, UniProt Q6QLK5) (assay: cell-free HIV fusion peptide-binding blockers – biochemical, uHTS, fluorescence dequenching, […] (AID 1986)).
Sequence of Envelope glycoprotein gp160 (Q6QLK5 whole entry, the tested form may be a part): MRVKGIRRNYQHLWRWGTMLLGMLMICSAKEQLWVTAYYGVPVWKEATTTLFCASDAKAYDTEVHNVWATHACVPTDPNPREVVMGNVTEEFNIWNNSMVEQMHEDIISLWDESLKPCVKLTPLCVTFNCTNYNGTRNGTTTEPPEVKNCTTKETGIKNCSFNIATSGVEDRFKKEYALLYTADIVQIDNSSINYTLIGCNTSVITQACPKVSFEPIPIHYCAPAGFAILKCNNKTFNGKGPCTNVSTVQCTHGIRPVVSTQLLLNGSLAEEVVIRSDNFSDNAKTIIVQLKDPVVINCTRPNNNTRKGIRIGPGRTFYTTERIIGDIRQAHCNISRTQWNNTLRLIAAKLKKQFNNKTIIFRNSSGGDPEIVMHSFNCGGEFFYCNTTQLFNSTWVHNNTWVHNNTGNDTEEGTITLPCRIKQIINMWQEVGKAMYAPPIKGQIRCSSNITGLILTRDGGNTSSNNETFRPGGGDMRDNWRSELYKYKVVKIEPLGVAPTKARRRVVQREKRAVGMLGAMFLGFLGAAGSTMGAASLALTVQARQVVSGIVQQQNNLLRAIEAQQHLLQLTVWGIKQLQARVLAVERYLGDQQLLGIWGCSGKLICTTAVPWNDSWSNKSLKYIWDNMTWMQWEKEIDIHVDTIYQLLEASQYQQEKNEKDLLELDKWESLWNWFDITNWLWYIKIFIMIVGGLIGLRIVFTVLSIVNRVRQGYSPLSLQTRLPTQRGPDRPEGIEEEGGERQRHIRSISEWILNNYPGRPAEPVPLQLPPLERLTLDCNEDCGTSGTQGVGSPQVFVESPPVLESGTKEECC
In the case of `N#C/C(=C\c1ccc(O)c([N+](=O)[O-])c1)c1nc2ccccc2s1`, the IC50 is reported as 25.2 µM (active). In the case of `CC(C)CS(=O)(=O)C1=NN2C(=N)/C(=C\c3ccc(OC(=O)c4ccco4)cc3)C(=O)N=C2S1`, the IC50 is reported as 12.8 µM (active). For `Cc1ccc(NC(S)=NNc2ccc([N+](=O)[O-])cc2S(=O)(=O)Nc2ccccc2C(=O)O)cc1C`, the IC50 was 7.4 µM (active). With `O=C(O)/C(CC(=O)c1ccc(Cl)cc1)=N/Nc1ccc([N+](=O)[O-])cc1[N+](=O)[O-]` the IC50 was 20.8 µM (active).
